Biological target: ATR-interacting protein/Serine/threonine-protein kinase ATR (Homo sapiens, UniProt Q13535)
Experiment: ATR/ATRIP Kinase Assay
Procedure: The ATR/ATRIP enzymatic assay is performed as a TR-FRET-(HTRF™, Cisbio Bioassays) based 384-well assay. In a first step, purified human recombinant ATR/ATRIP (human ATR, full length, GenBank ID: NM_001184.3, and human ATRIP, full length, GenBank ID AF451323.1, co-expressed in a mammalian cell line) is incubated in assay buffer for 15 minutes at 22° C. with test compound at different concentrations or without test compound (as a negative control). The assay buffer contains 25 mM HEPES pH 8.0, 10 mM Mg(CH3COO)2, 1 mM MnCl2, 0.1% BSA, 0.01% Brij 35, and 5 mM dithiothreitol (DTT). An Echo 555 (Labcyte) is used for dispensing of compound solutions. […] The generation of phosphorylated p53 as a result of the ATR mediated reaction in the presence of ATP is detected by using specific antibodies [labeled with the fluorophores europium (Eu) as donor and d2 as acceptor (Cisbio Bioassays)] enabling FRET. […] Following signal development for 2 h the plates are analyzed in an EnVision (PerkinElmer) microplate reader using the TRF mode with laser excitation. Upon excitation of the donor europium at 340 nm the emitted fluorescence light of the acceptor d2 at 665 nm as well as from the donor Eu at 615 nm are measured. The amount of phosphorylated p53 is directly proportional to the ratio of the amounts of emitted light i.e. the ratio of the relative fluorescence units (rfu) at 665 nm and 615 nm. […]

ATR-interacting protein/Serine/threonine-protein kinase ATR, sequence (Q8WXE1 whole entry): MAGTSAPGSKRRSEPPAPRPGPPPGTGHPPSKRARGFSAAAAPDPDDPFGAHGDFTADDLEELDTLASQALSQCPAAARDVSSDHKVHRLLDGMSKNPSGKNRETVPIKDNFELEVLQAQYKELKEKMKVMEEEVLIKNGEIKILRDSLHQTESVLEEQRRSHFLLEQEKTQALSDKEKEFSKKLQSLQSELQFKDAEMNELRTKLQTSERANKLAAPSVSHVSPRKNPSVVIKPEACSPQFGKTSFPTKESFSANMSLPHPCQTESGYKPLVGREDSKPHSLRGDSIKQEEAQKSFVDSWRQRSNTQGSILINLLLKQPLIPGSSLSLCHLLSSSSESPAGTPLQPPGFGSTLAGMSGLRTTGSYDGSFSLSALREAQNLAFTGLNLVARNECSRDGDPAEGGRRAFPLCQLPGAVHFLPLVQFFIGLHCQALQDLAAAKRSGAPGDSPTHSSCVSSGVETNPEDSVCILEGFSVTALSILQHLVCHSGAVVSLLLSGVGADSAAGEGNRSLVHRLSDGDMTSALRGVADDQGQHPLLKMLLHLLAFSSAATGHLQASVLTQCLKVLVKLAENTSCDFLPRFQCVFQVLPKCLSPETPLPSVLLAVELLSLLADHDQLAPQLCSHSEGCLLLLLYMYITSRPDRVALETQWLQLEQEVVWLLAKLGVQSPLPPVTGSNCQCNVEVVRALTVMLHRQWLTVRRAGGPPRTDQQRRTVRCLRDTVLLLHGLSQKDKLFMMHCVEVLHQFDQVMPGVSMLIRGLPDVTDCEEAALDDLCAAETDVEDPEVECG
ATR-interacting protein/Serine/threonine-protein kinase ATR, sequence (Q13535 whole entry): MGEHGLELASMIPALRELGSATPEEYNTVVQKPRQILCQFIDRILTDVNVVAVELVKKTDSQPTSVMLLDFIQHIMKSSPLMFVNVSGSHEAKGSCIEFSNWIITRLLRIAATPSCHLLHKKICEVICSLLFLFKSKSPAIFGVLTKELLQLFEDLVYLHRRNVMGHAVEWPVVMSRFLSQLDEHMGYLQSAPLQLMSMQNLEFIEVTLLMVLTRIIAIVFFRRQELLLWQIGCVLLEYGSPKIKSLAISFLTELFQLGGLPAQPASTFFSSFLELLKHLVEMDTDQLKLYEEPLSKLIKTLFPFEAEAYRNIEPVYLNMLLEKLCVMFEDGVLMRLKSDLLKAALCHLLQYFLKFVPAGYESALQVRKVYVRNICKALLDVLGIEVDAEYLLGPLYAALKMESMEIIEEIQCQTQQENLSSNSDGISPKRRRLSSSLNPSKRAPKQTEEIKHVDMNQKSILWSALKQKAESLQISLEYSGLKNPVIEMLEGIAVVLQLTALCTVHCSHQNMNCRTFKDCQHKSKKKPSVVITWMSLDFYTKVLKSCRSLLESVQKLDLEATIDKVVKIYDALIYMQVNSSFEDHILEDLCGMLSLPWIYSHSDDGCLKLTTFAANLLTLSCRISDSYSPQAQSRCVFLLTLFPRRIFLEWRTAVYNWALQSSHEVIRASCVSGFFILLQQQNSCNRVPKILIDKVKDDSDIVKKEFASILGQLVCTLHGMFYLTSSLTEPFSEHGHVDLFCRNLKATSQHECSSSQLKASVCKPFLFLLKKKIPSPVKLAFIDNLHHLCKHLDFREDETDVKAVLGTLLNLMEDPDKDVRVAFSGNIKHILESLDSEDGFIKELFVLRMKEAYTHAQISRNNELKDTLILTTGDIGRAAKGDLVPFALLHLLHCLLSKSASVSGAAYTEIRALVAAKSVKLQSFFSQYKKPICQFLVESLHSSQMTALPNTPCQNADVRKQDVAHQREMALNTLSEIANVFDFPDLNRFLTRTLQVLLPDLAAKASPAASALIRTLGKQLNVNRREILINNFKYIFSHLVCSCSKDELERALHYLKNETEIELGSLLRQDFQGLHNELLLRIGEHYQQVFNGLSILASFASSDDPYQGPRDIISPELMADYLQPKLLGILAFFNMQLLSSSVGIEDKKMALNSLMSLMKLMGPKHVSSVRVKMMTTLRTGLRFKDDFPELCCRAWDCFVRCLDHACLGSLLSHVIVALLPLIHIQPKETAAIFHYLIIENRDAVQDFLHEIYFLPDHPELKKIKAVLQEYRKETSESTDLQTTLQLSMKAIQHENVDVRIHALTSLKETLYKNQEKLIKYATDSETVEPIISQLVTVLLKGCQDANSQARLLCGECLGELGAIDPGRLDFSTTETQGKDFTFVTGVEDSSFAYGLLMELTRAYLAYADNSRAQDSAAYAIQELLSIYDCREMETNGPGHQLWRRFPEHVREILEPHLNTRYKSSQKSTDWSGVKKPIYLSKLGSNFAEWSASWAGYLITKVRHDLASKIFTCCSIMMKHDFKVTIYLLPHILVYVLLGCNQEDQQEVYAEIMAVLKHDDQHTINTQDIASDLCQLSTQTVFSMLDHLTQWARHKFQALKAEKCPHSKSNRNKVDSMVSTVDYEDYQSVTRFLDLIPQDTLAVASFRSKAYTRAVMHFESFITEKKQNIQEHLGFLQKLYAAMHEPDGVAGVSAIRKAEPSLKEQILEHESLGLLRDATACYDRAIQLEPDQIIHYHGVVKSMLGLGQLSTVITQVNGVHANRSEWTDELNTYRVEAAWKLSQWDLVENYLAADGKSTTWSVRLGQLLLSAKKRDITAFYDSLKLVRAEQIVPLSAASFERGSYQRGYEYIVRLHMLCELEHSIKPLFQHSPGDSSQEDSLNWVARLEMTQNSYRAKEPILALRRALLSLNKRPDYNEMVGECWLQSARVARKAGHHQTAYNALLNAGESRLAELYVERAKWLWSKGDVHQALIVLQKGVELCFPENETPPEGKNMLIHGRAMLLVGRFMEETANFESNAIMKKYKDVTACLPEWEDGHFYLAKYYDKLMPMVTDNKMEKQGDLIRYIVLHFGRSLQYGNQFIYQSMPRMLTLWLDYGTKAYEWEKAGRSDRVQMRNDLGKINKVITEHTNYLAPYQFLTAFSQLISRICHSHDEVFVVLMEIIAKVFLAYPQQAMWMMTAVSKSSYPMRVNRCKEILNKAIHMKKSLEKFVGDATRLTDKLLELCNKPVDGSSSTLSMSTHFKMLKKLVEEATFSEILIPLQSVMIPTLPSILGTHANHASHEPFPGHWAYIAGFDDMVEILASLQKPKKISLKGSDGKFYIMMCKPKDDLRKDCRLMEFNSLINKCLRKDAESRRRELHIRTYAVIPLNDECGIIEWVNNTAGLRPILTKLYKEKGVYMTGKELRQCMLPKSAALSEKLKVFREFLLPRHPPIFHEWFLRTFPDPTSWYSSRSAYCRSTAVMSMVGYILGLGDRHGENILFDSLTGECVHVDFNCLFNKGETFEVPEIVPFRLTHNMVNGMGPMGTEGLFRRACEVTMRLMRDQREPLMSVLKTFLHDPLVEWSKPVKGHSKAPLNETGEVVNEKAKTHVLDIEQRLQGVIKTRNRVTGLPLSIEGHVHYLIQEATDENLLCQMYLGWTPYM

C[C@@H]1COCCN1c1cc(C2CCS(=O)(=O)CC2)c2c(n1)c(-c1ccn[nH]1)nn2C [US12371430, Compound 82]
IC50: 800 pM

Reference: BindingDB's records for patent US12371430 (Merck Patent, 2025)
